Activity calls are given as the source filed them. The rule behind the calls is not given here.
How the values were obtained:
KMS-12-BM [1] = assay: Effect on G9a expression in human KMS-12-BM cells at cytotoxic IC50 measured after 72 hrs by Western blot analysis; assay type: functional, cell-based
JJN-3 [2] = assay: Cytotoxicity against human JJN-3 cells assessed as decrease in number of colonies incubated for 14 days by colony formation assay; assay type: functional, cell-based; conditions: time 14.0 day
KMS-12-BM [3] = assay: Cytotoxicity against human KMS-12-BM cells expressing shG9a assessed as reduction in cell viability measured after 72 hrs by Celltiter-glo luminescent cell viability assay; assay type: functional, cell-based
[4] = Cytotoxicity against human Bortezomib-resistant RPMI-8226 cells assessed as reduction in cell viability measured after 72 hrs by Celltiter-glo luminescent cell viability assay; assay type: functional, cell-based; conditions: Bortezomib-resistant RPMI-8226, 72 h
[5] = biological target: T1, Histone-lysine N-methyltransferase EHMT2 (Homo sapiens) (UniProt Q96KQ7); assay: Inhibition of G9a in human JJN-3 cells assessed as reduction in RelB mRNA expression at cytotoxic IC50 measured after 72 hrs by qRT-PCR analysis; assay type: cell-based
T1 sequence (whole entry): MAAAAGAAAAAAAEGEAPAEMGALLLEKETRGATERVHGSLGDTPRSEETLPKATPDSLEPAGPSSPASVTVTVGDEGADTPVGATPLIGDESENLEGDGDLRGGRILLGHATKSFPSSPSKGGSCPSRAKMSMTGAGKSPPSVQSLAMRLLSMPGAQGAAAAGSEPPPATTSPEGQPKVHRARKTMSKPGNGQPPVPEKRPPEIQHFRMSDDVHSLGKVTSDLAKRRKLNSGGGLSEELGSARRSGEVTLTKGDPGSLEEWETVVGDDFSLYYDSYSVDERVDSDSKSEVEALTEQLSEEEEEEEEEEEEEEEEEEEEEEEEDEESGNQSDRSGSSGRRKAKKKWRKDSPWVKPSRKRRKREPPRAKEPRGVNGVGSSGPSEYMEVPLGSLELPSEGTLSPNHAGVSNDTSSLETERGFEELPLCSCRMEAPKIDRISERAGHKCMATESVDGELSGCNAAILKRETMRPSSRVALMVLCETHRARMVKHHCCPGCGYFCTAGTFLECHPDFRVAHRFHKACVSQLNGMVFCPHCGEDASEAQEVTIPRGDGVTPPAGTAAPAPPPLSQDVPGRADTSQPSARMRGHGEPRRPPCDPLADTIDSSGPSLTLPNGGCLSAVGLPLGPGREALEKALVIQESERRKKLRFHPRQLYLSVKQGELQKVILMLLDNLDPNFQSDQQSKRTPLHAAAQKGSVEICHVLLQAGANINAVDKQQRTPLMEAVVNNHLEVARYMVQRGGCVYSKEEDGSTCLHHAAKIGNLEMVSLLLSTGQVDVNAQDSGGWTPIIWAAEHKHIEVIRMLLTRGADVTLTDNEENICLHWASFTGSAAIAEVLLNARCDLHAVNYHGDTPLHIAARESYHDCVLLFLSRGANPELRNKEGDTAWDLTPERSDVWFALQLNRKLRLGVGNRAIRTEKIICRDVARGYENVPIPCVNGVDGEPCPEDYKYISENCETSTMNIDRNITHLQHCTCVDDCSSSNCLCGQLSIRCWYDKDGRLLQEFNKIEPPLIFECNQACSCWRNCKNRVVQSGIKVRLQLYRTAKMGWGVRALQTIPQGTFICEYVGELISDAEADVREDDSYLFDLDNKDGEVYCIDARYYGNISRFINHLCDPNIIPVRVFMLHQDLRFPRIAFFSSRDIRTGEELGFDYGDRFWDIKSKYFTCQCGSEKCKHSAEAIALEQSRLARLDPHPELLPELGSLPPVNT

[6] = biological target: Histone-lysine N-methyltransferase EZH2 (Homo sapiens, UniProt Q15910); assay: Inhibition of EZH2 (unknown origin)
JJN-3 [7] = assay: Cytotoxicity against human JJN-3 cells expressing shNT assessed as reduction in cell viability measured after 72 hrs by Celltiter-glo luminescent cell viability assay; assay type: functional, cell-based; conditions: JJN-3, 72 h
KMS-12-BM [8] = assay: Cytotoxicity against human KMS-12-BM cells assessed as reduction in cell viability measured after 72 hrs by MTS assay; assay type: functional, cell-based
JJN-3 [9] = assay: Cytotoxicity against human JJN-3 cells expressing shG9a assessed as reduction in cell viability measured after 72 hrs by Celltiter-glo luminescent cell viability assay; assay type: functional, cell-based; conditions: JJN-3, 72 h
[10] = Cytotoxicity against human Bortezomib-resistant RPMI-8226 cells assessed as reduction in cell viability measured after 72 hrs by MTS assay; assay type: functional, cell-based; conditions: Bortezomib-resistant RPMI-8226, 72 h
[11] = biological target: T1, Histone-lysine N-methyltransferase EHMT2 (Homo sapiens); assay: Inhibition of G9a in human JJN-3 cells assessed as decrease in p100 expression at cytotoxic IC50 measured after 72 hrs by Western blot analysis; assay type: cell-based
[12] = Cytotoxicity against human MSC cells assessed as reduction in cell viability measured after 72 hrs by MTS assay; assay type: toxicity, cell-based
RPMI-8226 [13] = assay: Cytotoxicity against human RPMI-8226 cells assessed as reduction in cell viability measured after 72 hrs by MTS assay; assay type: functional, cell-based; conditions: RPMI-8226, 72 h
[14] = Cytotoxicity against human CD38-positive cells assessed as reduction in cell viability measured after 72 hrs by Celltiter-glo luminescent cell viability assay; assay type: toxicity, cell-based
RPMI-8226 [15] = assay: Cytotoxicity against human RPMI-8226 cells assessed as reduction in cell viability measured after 72 hrs by Celltiter-glo luminescent cell viability assay; assay type: functional, cell-based; conditions: RPMI-8226, 72 h
[16] = biological target: T1, Histone-lysine N-methyltransferase EHMT2 (Homo sapiens); assay: Inhibition of G9a in human JJN-3 cells assessed as increase in BMF mRNA expression at cytotoxic IC50 measured after 72 hrs by qRT-PCR analysis; assay type: cell-based
KMS-12-BM [17] = assay: Cytotoxicity against human KMS-12-BM cells expressing shNT assessed as reduction in cell viability measured after 72 hrs by Celltiter-glo luminescent cell viability assay; assay type: functional, cell-based
[18] = biological target: T1, Histone-lysine N-methyltransferase EHMT2 (Homo sapiens); assay: Inhibition of G9a in human JJN-3 cells assessed as decrease in NFKB2 expression at cytotoxic IC50 measured after 72 hrs by Western blot analysis; assay type: cell-based
JJN-3 [19] = assay: Cytotoxicity against human JJN-3 cells assessed as reduction in colony size incubated for 14 days by colony formation assay; assay type: functional, cell-based; conditions: time 14.0 day
KMS-12-BM [20] = assay: Cytotoxicity against human KMS-12-BM cells assessed as decrease in number of colonies incubated for 14 days by colony formation assay; assay type: functional, cell-based; conditions: time 14.0 day
[21] = biological target: T1, Histone-lysine N-methyltransferase EHMT2 (Homo sapiens); assay: Inhibition of G9a in human KMS-12-BM cells assessed as reduction in H3K9me2 level at cytotoxic IC50 measured after 72 hrs by Western blot analysis; assay type: cell-based
JJN-3 [22] = assay: Cytotoxicity against human JJN-3 cells assessed as reduction in cell viability measured after 72 hrs by MTS assay; assay type: functional, cell-based; conditions: JJN-3, 72 h
KMS-12-BM [23] = assay: Cytotoxicity against human KMS-12-BM cells assessed as reduction in colony size incubated for 14 days by colony formation assay; assay type: functional, cell-based; conditions: time 14.0 day
KMS-12-BM [24] = assay: Cytotoxicity against human KMS-12-BM cells assessed as reduction in cell viability measured after 72 hrs by Celltiter-glo luminescent cell viability assay; assay type: functional, cell-based
[25] = biological target: T1, Histone-lysine N-methyltransferase EHMT2 (Homo sapiens); assay: Inhibition of G9a in human JJN-3 cells assessed as decrease in p52 expression at cytotoxic IC50 measured after 72 hrs by Western blot analysis; assay type: cell-based
[26] = biological target: T1, Histone-lysine N-methyltransferase EHMT2 (Homo sapiens); assay: Inhibition of G9a in human JJN-3 cells assessed as increase in Bim mRNA expression at cytotoxic IC50 measured after 72 hrs by qRT-PCR analysis; assay type: cell-based
JJN-3 [27] = assay: Cytotoxicity against human JJN-3 cells assessed as reduction in cell viability measured after 72 hrs by Celltiter-glo luminescent cell viability assay; assay type: functional, cell-based; conditions: JJN-3, 72 h

Sequence of Histone-lysine N-methyltransferase EZH2 (Q15910 whole entry): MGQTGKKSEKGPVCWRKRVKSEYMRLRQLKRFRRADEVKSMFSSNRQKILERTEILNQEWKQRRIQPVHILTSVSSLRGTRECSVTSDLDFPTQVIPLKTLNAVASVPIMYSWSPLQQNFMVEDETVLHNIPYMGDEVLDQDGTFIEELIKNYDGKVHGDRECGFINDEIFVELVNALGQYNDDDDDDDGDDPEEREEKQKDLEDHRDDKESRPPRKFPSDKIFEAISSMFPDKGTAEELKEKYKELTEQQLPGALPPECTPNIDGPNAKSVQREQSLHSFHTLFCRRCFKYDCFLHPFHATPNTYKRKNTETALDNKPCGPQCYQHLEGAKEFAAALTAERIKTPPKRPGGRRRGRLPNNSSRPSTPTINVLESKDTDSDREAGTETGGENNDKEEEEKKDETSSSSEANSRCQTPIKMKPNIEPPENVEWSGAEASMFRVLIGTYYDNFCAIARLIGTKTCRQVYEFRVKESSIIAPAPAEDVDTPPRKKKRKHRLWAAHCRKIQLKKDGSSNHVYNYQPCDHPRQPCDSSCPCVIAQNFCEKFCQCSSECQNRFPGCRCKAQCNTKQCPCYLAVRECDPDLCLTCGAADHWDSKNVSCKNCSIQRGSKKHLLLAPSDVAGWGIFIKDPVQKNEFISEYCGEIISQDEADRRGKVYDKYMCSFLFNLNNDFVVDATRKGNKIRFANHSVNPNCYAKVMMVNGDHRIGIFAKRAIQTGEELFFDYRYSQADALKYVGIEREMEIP

For `COc1cc2c(NC3CCN(C(C)C)CC3)nc(N3CCC(F)(F)CC3)nc2cc1OCCCN1CCCC1`, the Activity (KMS-12-BM [1]) was “inactive”, the Activity (JJN-3 [2]) was “Active” and the IC50 (KMS-12-BM [3]) was 58.7 µM. The IC50 [4] was 25.4 µM, the inhibition [5] was “Active” and the IC50 [6] was 5 µM. It also gave an IC50 (JJN-3 [7]) of 6.81 µM, an IC50 (KMS-12-BM [8]) of 20.3 µM and an IC50 (JJN-3 [9]) of 17.8 µM. The IC50 [10] was 12.6 µM, the inhibition [11] was “Active” and the IC50 at 72 h [12] was 36.9 µM. For the same molecule, the IC50 (RPMI-8226 [13]) was 26.9 µM, the IC50 at 72 h [14] was 6.91 µM and the IC50 (RPMI-8226 [15]) was 22 µM. The inhibition [16] was “Active”, the IC50 (KMS-12-BM [17]) was 23.7 µM and the inhibition [18] was “Active”. For the same molecule, the Activity (JJN-3 [19]) was “Active”, the Activity (KMS-12-BM [20]) was “Active” and the inhibition [21] was “Active”. The IC50 (JJN-3 [22]) was 19 µM, the Activity (KMS-12-BM [23]) was “Active” and the IC50 (KMS-12-BM [24]) was 10.8 µM. The inhibition [25] was “Active”, the inhibition [26] was “Active” and the IC50 (JJN-3 [27]) was 5.85 µM.

— ChEMBL document CHEMBL5712916, “Frequent upregulation of G9a promotes RelB-dependent proliferation and survival in multiple myeloma” (Exp Hematol Oncol, 2020)
